Experimental data taken from patent publication US20180116993A1, “MODULATORS OF FARNESOID X RECEPTOR AND METHODS FOR THE USE THEREOF” (XIAMEN UNIVERSITY, priority 2015, published 2018).
Marks after values point to notes of the source that are not given here.

Experiments:
[1] = system: mice with APAP-induced liver injury; test: Acetaminophen (APAP)-induced liver injury in mouse; format: in vivo; settings: for Liver morphology by H&E staining (FIG. 1): 10 mg/kg (Tschimganine 20 mg/kg) i.p. five days, then APAP, compared to severe liver injury in control group; for Hepatic GSH (μM/g liver tissue) / ALT (U/L): then APAP 500 mg/kg; for expression levels of GPX1 and UGT1α1 in liver: mRNA by RT-PCR; for expression levels of GPX1 and UGT1α1 in liver / activities of serum AST, ALT and LDH: vs vehicle control group, Table 5 (not given); for ALT (U/L): serum, vehicle 786 ± 111
Source text: Methods: Acetaminophen (APAP)-induced liver injury in mouse is a commonly used model to study drugs protecting liver. Overdose of APAP causes liver injury by inducing the production of reactive oxygen species and reactive nitrogen species, and excessive consumption of reductive substances such as antioxidant glutathione (GSH), leading to the reduction of GSH in vivo, and the following upregulation of the activities of the aspartate aminotransferase (AST), the alanine aminotransferase (ALT) and the lactate dehydrogenase (LDH), which will result in liver inflammation and necrosis. In this example, the APAP-induced liver injury was used to detect the protection and repair functions of our compounds in liver injury.
One-year or 8-week age mice were maintained under environmentally controlled conditions with free access to standard chow diet and water. Animal experiments were conducted in the barrier facility of the Laboratory Animal Center, Xiamen University, approved by the Institutional Animal Use and Care Committee of Xiamen University, China.
Compounds were solved with DMSO and then prepared to work concentration with 40% HBC (2-hydroxypropyl-β-cyclodextrin) in which the final work concentrations of compounds are 5 mg/kg body weight, 10 mg/kg or 20 mg/kg in 100 μl injection volume and the concentration of DMSO is 10%. Compounds were intraperitoneal (i.p.) injected once daily for five days. For Feroline and Tschimganine, one-year age mice were used in the experiment. For other compounds, 8-week age mice were used. […] For Tschimganine, 20 mg/kg dose of compound was administered to mice. For other compounds, 5 mg/kg dose of compounds were administered to mice. Six hours after the fifth injection, 500 mg/kg body weight of APAP solved in PBS was i.p. injected to the mice. 24 hours later, mice were sacrificed. Part of each liver was fixed in 4% paraformaldehyde, and the liver histology characterization was analyzed by haematoxylin and eosin (H&E) staining with paraffin-embedded sections by standard procedures. Other liver tissues were collected for detecting the GSH levels, and the mRNA expression of genes involved in liver repairing, such as GPX1 and UGT1a1, by RT-PCR. The serums were collected to measure enzymes activities including AST, ALT and LDH. For the synthetic derivatives, ALT and GSH were selected as indicating markers for the function of these compounds.

db/db mice [2] = test: Serum/blood metabolic parameters in high-fat diet fed db/db mice; format: in vivo, mouse
Source text: KK-Ay mice (KK/Upj-Ay/J) are animal models with moderate obese and diabetes with insulin resistance. KK-Ay mice develop hyperglycemia, hyperinsulinemia, glucose intolerance and obesity as well as fat accumulation in liver by eight weeks of age. Pancreatic islets are hypertrophied and the β-cells are degranulated. db/db mice (BKS.Cg-Dockr+/+ Lepr^db/Jnju) are animal models of type II diabetes. They have the phenotype of insulin resistance. These model mice were used to detect the functions of our compounds on metabolic diseases.
8-10 weeks age mice were maintained as example 4, and fed with high-fat diet (Research Diets, D12492). Mice were i.p. injected with compounds once daily for 7, 10, 11 or 14 days as indicated in each table. After the last compounds injection, mice were fasted for 6 hours with free access to water, and then sacrificed. Part of each liver was fixed in 4% paraformaldehyde for H&E staining, and other liver tissues were stored in liquid nitrogen for enzyme activity measurement and gene expression analysis by RT-PCR. The serums were collected to measure metabolic parameters, including serum glucose, insulin, cholesterol, free fatty acid (FFA) and triglyceride levels. Serum glucose was analyzed using glucose oxidase method (Applygen, Beijing, China). The blood glucose in Table 11 was measured with Berenger blood glucose test strips (B/BRAUN, German) from blood by cutting mice tail after the 6th injection and following fast for 16 hours. Serum cholesterol and FFA were analyzed using Cholesterol Assay Kit and FFA Assay Kit (Bioassay Systems, USA; Nanjing Jiancheng Bioengineering Institute, China; FFA ELISA, R&D, USA), respectively. Serum triglyceride was analyzed using Triglyceride Assay Kit (Bioassay Systems, USA; WAKO Chemicals Inc., Japan; Applygen, Beijing, China). Liver triglyceride was analyzed using Tissue triglyceride assay kit (Applygen, Beijing, China). Serum insulin levels were measured by the Ultra Sensitive Mouse Insulin ELISA Kit (Crystal Chem. Inc., USA). RNA was isolated using Tissue RNA kit (Omega Bio-Tek, GA). The first strand cDNA were obtained by TAKARA reverse transcription kit. Real-time quantitative PCR were performed on a CFX96™ Real-Time PCR Detection System (Bio-Rad) using SYBR Premix Ex Taq™ (TAKARA). Relative mRNA expression levels were normalized to actin levels. […]

db/db mice [3] = test: Hepatic triglyceride, liver histology, serum ALT and ALP in high-fat diet fed db/db mice; format: in vivo, mouse; settings: for Hepatic triglyceride (mM/g): vehicle 148 ± 14; for Serum ALP (U/L): vehicle 129 ± 15
In short: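 High-fat diet fed db/db mice aged 8-10 weeks dosed 10 mg/kg compound once daily for 10 days. Liver sections stained with H&E and 0.3% oil red O; hepatic triglyceride measured by tissue assay kit; serum ALP and ALT activities measured by kit.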

[4] = 10 mg/kg for 10 days, vehicle 377 ± 48, Table 15
[5] = 5 mg/kg i.p. once daily for five days, 8-week age mice, vehicle 9.1 ± 0.5
[6] = 10 mg/kg, treat for 10 days, vehicle 527 ± 63
[7] = 5 mg/kg i.p. once daily for five days, 8-week age mice
[8] = 10 mg/kg once daily for 10 days
[9] = 10 mg/kg once daily for 10 days, vehicle 377 ± 48, Table 17

C/C1=C\CCC(C)(O)/C=C/C(C(C)C)C(OC(=O)c2ccc(O)cc2)C1 (stereo not drawn) [Feroline]
Liver morphology by H&E staining (FIG. 1) [1]: almost normal liver morphology | Hepatic GSH (μM/g liver tissue) ([1]; 10 mg/kg i.p. once daily for five days, one-year age mice, vehicle 8.0 ± 2.8): 14.2 ± 1.6^b μM/g liver tissue | expression levels of GPX1 and UGT1α1 in liver [1]: significantly upregulated | activities of serum AST, ALT and LDH [1]: dramatically lower

COc1cc(C(=O)OC2C/C(C)=C/CC/C(C)=C/[C@@H](O)[C@H]2C(C)C)ccc1O (stereo partly drawn) [Tschimganidine]
Liver morphology by H&E staining (FIG. 1) [1]: almost normal liver morphology | expression levels of GPX1 and UGT1α1 in liver [1]: significantly upregulated | activities of serum AST, ALT and LDH [1]: dramatically lower

COc1cc(C(=O)O[C@H]2C[C@H]3CC[C@]2(C)C3(C)C)ccc1O [Tschimganine]
Liver morphology by H&E staining (FIG. 1) [1]: almost normal liver morphology | Hepatic GSH (μM/g liver tissue) ([1]; 20 mg/kg i.p. once daily for five days, one-year age mice, vehicle 8.0 ± 2.8): 14.9 ± 0.6^b μM/g liver tissue | expression levels of GPX1 and UGT1α1 in liver [1]: significantly upregulated | activities of serum AST, ALT and LDH [1]: dramatically lower | Serum Insulin (ng/ml) (db/db mice [2]; 10 mg/kg for 7 days, vehicle 12 ± 3): 4.7 ± 0.4^b ng/ml | Serum Glucose (mg/dl) (db/db mice [2]; 10 mg/kg for 7 days, vehicle 521 ± 54): 342 ± 36^a mg/dl

CC1(C)[C@@H]2CC[C@@]1(C)[C@@H](OC(=O)c1ccc(O)cc1)C2 [Tschimgine]
Liver morphology by H&E staining (FIG. 1) [1]: almost normal liver morphology | expression levels of GPX1 and UGT1α1 in liver [1]: significantly upregulated | activities of serum AST, ALT and LDH [1]: dramatically lower | Serum Triglyceride (mg/dl) (db/db mice [2]; 10 mg/kg for 11 days, vehicle 96 ± 16): 38 ± 8^a mg/dl | Serum Cholesterol (mg/dl) (db/db mice [2]; 10 mg/kg for 11 days, vehicle 121 ± 13): 96 ± 3^a mg/dl | Serum FFA (μM) (db/db mice [2]; 10 mg/kg for 11 days, vehicle 371 ± 27): 302 ± 21^a μM | Blood Glucose (mg/dl) (db/db mice [2]; 10 mg/kg, 11 days, tail blood after the 6th injection and 16 h fast, vehicle 452 ± 24): 252 ± 54^b mg/dl

CC1(C)C2CCC1(C)C(OC(=O)c1ccc(F)cc1)C2 (stereo not drawn) [XD-0, 1,7,7-trimethyl-bicyclo[2.2.1]-heptan-2-yl 4-fluorobenzoate]
Hepatic triglyceride (mM/g) (db/db mice [3]; 10 mg/kg for 10 days): 91 ± 22 ^a mM/g | Serum ALT (U/L) (db/db mice [3]; [4]): 106 ± 22 ^a U/L | Hepatic GSH (μM/g liver tissue) [1, 5]: 15.0 ± 0.5 ^b μM/g liver tissue | Serum Glucose (mg/dl) (db/db mice [2]; [6]): 223 ± 33^b mg/dl

CC1(C)C2CCC1(C)C(OC(=O)c1ccncc1)C2 (stereo not drawn) [XD-6, 1,7,7-trimethyl-bicyclo[2.2.1]-heptan-2-yl isonicotinate]
Hepatic triglyceride (mM/g) (db/db mice [3]; 10 mg/kg for 10 days): 90 ± 11^b mM/g | Serum ALT (U/L) (db/db mice [3]; [4]): 101 ± 28 ^a U/L | ALT (U/L) [1, 7]: 109 ± 26 ^c U/L

CC1(C)C2CCC1(C)C(OC(=O)c1ccc(=O)[nH]c1)C2 (stereo not drawn) [XD-8, 1,7,7-trimethyl-bicyclo[2.2.1]-heptan-2-yl 6-oxo-1,6-dihydropyridine-3-carboxylate]
Hepatic triglyceride (mM/g) (db/db mice [3]; 10 mg/kg for 10 days): 102 ± 8 ^c mM/g | Serum ALT (U/L) (db/db mice [3]; [4]): 115 ± 31 ^a U/L | ALT (U/L) [1, 7]: 115 ± 38 ^c U/L

CC1(C)C2CCC1(C)C(OC(=O)c1ccc(=O)oc1)C2 (stereo not drawn) [XD-9, 1,7,7-trimethyl-bicyclo[2.2.1]-heptan-2-yl 6-oxo-6H-pyran-3-carboxylate]
Hepatic triglyceride (mM/g) (db/db mice [3]; 10 mg/kg for 10 days): 93 ± 14 ^a mM/g | Serum ALT (U/L) (db/db mice [3]; [4]): 121 ± 33 ^a U/L | Serum Glucose (mg/dl) (db/db mice [2]; [6]): 399 ± 41^a mg/dl

O=C(OC1CCCCCCCCCCC1)c1ccc(O)cc1 [XD-11, cyclododecyl 4-hydroxybenzoate]
Hepatic triglyceride (mM/g) (db/db mice [3]; 10 mg/kg for 10 days): 102 ± 13 ^a mM/g | Serum ALT (U/L) (db/db mice [3]; [4]): 106 ± 26 ^a U/L | Hepatic GSH (μM/g liver tissue) [1, 5]: 12.6 ± 0.4 ^b μM/g liver tissue

Nc1ccc(C(=O)OC2CCCCCC2)cc1 [XD-12, cycloheptyl 4-aminobenzoate]
Hepatic triglyceride (mM/g) (db/db mice [3]; 10 mg/kg for 10 days): 103 ± 20 ^a mM/g | Serum ALT (U/L) (db/db mice [3]; [4]): 199 ± 37 ^a U/L | Hepatic GSH (μM/g liver tissue) [1, 5]: 12.5 ± 0.7 ^a μM/g liver tissue

CC1(C)C2CCC1(C)C(OC(=O)c1ccc(F)c(Br)c1)C2 (stereo not drawn) [XD-13, 1,7,7-trimethyl-bicyclo[2.2.1]-heptan-2-yl 3-bromo-4-fluoro-benzoate]
Serum ALP (U/L) (db/db mice [3]; [8]): 92 ± 7^c U/L | Serum ALT (U/L) (db/db mice [3]; [9]): 135 ± 5^c U/L | Hepatic GSH (μM/g liver tissue) [1, 5]: 13.7 ± 0.9 ^a μM/g liver tissue

COc1cc(C(=O)OC2CCCCCCC2)ccc1O [XD-18, cyclooctyl 4-hydroxy-3-methoxybenzoate]
Serum ALP (U/L) (db/db mice [3]; [8]): 77 ± 9^c U/L | Serum ALT (U/L) (db/db mice [3]; [9]): 129 ± 19^b U/L | ALT (U/L) [1, 7]: 135 ± 48 ^a U/L

O=C(OC1CCC2CCCCC2C1)c1ccc(O)cc1 (stereo not drawn) [XD-28, decahydro-naphthalen-2-yl 4-hydroxy-benzoate]
Hepatic triglyceride (mM/g) (db/db mice [3]; 10 mg/kg for 10 days): 87 ± 10 ^c mM/g | Serum ALT (U/L) (db/db mice [3]; [4]): 103 ± 17^b U/L | ALT (U/L) [1, 7]: 114 ± 25 ^c U/L

Cc1cc(C(=O)OC2CCC3CCCCC3C2)ccc1O (stereo not drawn) [XD-29, decahydro-naphthalen-2-yl 4-hydroxy-3-methylbenzoate]
Hepatic triglyceride (mM/g) (db/db mice [3]; 10 mg/kg for 10 days): 116 ± 11 ^a mM/g | Serum ALT (U/L) (db/db mice [3]; [4]): 101 ± 46^b U/L | Serum ALP (U/L) (db/db mice [3]; [8]): 69 ± 9^c U/L | Serum ALT (U/L) (db/db mice [3]; [9]): 101 ± 46^b U/L | ALT (U/L) [1, 7]: 118 ± 31 ^c U/L

COc1cc(C(=O)OC2CCC3CCCCC3C2)ccc1O (stereo not drawn) [XD-30, decahydro-naphthalen-2-yl 4-hydroxy-3-methoxybenzoate]
Hepatic triglyceride (mM/g) (db/db mice [3]; 10 mg/kg for 10 days): 108 ± 8 ^c mM/g | Serum ALT (U/L) (db/db mice [3]; [4]): 92 ± 27 ^a U/L | Serum ALP (U/L) (db/db mice [3]; [8]): 64 ± 14^a U/L | Serum ALT (U/L) (db/db mice [3]; [9]): 92 ± 27^a U/L | ALT (U/L) [1, 7]: 107 ± 41 ^b U/L | Serum Glucose (mg/dl) (db/db mice [2]; [6]): 400 ± 51^a mg/dl

Cc1cc(C(=O)OC2CCC3CCCCC3C2)ccc1[N+](=O)[O-] (stereo not drawn) [XD-35, decahydro-naphthalen-2-yl 3-methyl-4-nitro-benzoate]
Hepatic GSH (μM/g liver tissue) [1, 5]: 12.6 ± 1.6 ^a μM/g liver tissue | Serum Glucose (mg/dl) (db/db mice [2]; [6]): 337 ± 67^a mg/dl

COc1cc(C(=O)OC2CCC3CCCCC3C2)ccc1[N+](=O)[O-] (stereo not drawn) [XD-36, decahydro-naphthalen-2-yl 3-methoxy-4-nitrobenzoate]
Hepatic GSH (μM/g liver tissue) [1, 5]: 14.8 ± 0.3 ^b μM/g liver tissue | Serum Glucose (mg/dl) (db/db mice [2]; [6]): 366 ± 65^a mg/dl
